Values joined by “and” are separate entries in the source; they are usually repeats but may differ in a detail not shown here. Equal values may be shown once. Read-outs that look alike come from different tables or passages of the source. Marks after values point to notes of the source that are not given here.
What was measured:
[1] = tested on: HSV-1(F); assay: Plaque reduction assay in Vero cells; format: cell-based; settings: monkey
Description: (§1) With FMAU as a lead compound, the syntheses of other 5-alkyl substituted 2′-fluoro-ara-uracils were undertaken (8, 9), including 1-(2′-deoxy-2′-fluoro-beta-D-arabinofuranosyl)-5-ethyluracil [FEAU].

[2] = tested on: HSV-2(G); assay: Plaque reduction assay in Vero cells; format: cell-based; settings: monkey
Description: as §1

[3] = tested on: Vero cells; assay: Inhibition of cell growth; format: cell-based, African green monkey; settings: Chlorocebus sabaeus, read-out: ED50 FOR INHIBITING CELL GROWTH IN VERO CELLS
[4] = target: HSV-2 (STRAIN 333) TK (Human herpesvirus 2, UniProt P04407); assay: Phosphorylation by thymidine kinase relative to thymidine; format: biochemical; settings: thymidine at 400 µM
Chain of HSV-2 (STRAIN 333) TK (P04407 whole entry): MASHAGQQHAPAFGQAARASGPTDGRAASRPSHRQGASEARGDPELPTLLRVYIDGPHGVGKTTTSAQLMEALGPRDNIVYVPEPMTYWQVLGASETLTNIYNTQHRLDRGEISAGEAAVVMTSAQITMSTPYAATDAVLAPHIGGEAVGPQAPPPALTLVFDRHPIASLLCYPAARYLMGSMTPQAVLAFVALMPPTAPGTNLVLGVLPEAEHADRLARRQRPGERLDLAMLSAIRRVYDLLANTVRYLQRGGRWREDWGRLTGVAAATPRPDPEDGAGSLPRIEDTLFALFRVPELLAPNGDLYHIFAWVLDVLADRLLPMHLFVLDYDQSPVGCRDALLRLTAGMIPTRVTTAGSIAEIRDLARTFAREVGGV
Description: It is generally accepted that the selective anti-herpes activity of 2′-fluoro-arabinosylpyrimidine nucleosides is associated in large measure with their ability to be recognized as good substrates for HSV-specified thymidine kinase (TK), but not by the host TK (14, 15). […] By contrast, FEAU is a very poor substrate for the host HL-60 derived TKs (13). […] Their data also indicate that, in uninfected Vero cells, FEAU would be phosphorylated at a very low rate in the presence of thymidine.

[5] = tested on: RAT BONE MARROW CELLS; assay: Inhibition of thymidine incorporation into DNA; format: cell-based; settings: Bone marrow cell, read-out: ED50 FOR […] INC[…] DNA, RAT BONE MARROW CELLS, read-out: ED50 FOR INHIBITING THYMIDINE INCORPORATION INTO DNA, RAT BONE MARROW CELLS
[6] = tested on: HSV-2 (STRAIN G); settings: cited from earlier work; for MDD: calculated on day 21; for %WT GAIN ON DAY 7 / %WT GAIN ON DAY 14 / %WT GAIN ON DAY 21 / %WT GAIN ON DAY 30: compared to day 1
[7] = tested on: L-1210; assay: Incorporation of 2-14C-labeled nucleoside into DNA of cells; format: cell-based, rodent; settings: FEAU also not detectable at 100 μM
Description: There was no detectable incorporation of FEAU radioactivity into the DNA of either L-1210 or Vero cell lines, but substantial amounts of FMAU radioactivity were incorporated into the DNA of both cell lines. When HSV-1 infected Vero cells were exposed to ¹⁴C-labeled FEAU and FMAU, both nucleosides incorporated into the DNA of these virus-infected cells.

[8] = FEAU 10 MG/KG/DAY, single surviving animal only

**Q.** For `CCc1cn([C@@H]2O[C@H](CO)[C@@H](O)[C@@H]2F)c(=O)[nH]c1=O` [FEAU, 1-(2'-deoxy-2'-fluoro-beta-D-arabino-furanosyl)-5-ethyl-uracil], which “THER. INDEX ID₅₀/ED₉₀ HSV-1” value [1] is on record?
**A.** 769

**Q.** And the “THER. INDEX ID₅₀/ED₉₀ HSV-2” value [2]?
**A.** 220

**Q.** And the EC50 [3]?
**A.** > 0.2 mM

**Q.** What about the “PERCENTAGE RATES OF PHOSPHORYLATION (RELATIVE TO THYMIDINE), HSV-2 (STRAIN 333) TK” value [4] of the same compound?
**A.** 203.2% and 146.6%

**Q.** And the EC50 [5]?
**A.** 3.7 mM

**Q.** What about the MDD ([6]; FEAU 10 MG/KG/DAY, twice a day for 4 days from 5 hr after inoculation) of the same compound?
**A.** 9.4

**Q.** What about the “% SURVIVORS” value ([6]; FEAU 10 MG/KG/DAY, twice a day for 4 days) of the same compound?
**A.** 8%

**Q.** What about the “%WT GAIN ON DAY 7” value ([6]; FEAU 10 MG/KG/DAY) of the same compound?
**A.** -7%

**Q.** And the “%WT GAIN ON DAY 14” value [6, 8]?
**A.** -13^+ %

**Q.** And the “%WT GAIN ON DAY 21” value [6, 8]?
**A.** 31^+ %

**Q.** What about the “%WT GAIN ON DAY 30” value [6, 8] of the same compound?
**A.** 36^+ %

**Q.** And the MDD ([6]; FEAU 50 MG/KG/DAY, twice a day for 4 days from 5 hr after inoculation)?
**A.** 11.8

**Q.** What about the “% SURVIVORS” value ([6]; FEAU 50 MG/KG/DAY, twice a day for 4 days) of the same compound?
**A.** 25%

**Q.** What about the “%WT GAIN ON DAY 7” value ([6]; FEAU 50 MG/KG/DAY) of the same compound?
**A.** 3%

**Q.** What about the “%WT GAIN ON DAY 14” value ([6]; FEAU 50 MG/KG/DAY) of the same compound?
**A.** -10%

**Q.** What about the “%WT GAIN ON DAY 21” value ([6]; FEAU 50 MG/KG/DAY) of the same compound?
**A.** 16%

**Q.** What about the “%WT GAIN ON DAY 30” value ([6]; FEAU 50 MG/KG/DAY) of the same compound?
**A.** 25%

**Q.** What about the MDD ([6]; FEAU 100 MG/KG/DAY, twice a day for 4 days from 5 hr after inoculation) of the same compound?
**A.** 11.0

**Q.** What about the “% SURVIVORS” value ([6]; FEAU 100 MG/KG/DAY, twice a day for 4 days) of the same compound?
**A.** 72%

**Q.** And the “%WT GAIN ON DAY 7” value ([6]; FEAU 100 MG/KG/DAY)?
**A.** 2%

**Q.** What about the “%WT GAIN ON DAY 14” value ([6]; FEAU 100 MG/KG/DAY) of the same compound?
**A.** 7%

**Q.** What about the “%WT GAIN ON DAY 21” value ([6]; FEAU 100 MG/KG/DAY) of the same compound?
**A.** 13%

**Q.** And the “%WT GAIN ON DAY 30” value ([6]; FEAU 100 MG/KG/DAY)?
**A.** 13%

**Q.** What about the MDD ([6]; FEAU 200 MG/KG/DAY, twice a day for 4 days, parentheses: death of a single animal) of the same compound?
**A.** (14)^#

**Q.** What about the “% SURVIVORS” value ([6]; FEAU 200 MG/KG/DAY, twice a day for 4 days) of the same compound?
**A.** 93%

**Q.** And the “%WT GAIN ON DAY 7” value ([6]; FEAU 200 MG/KG/DAY)?
**A.** 0%

**Q.** What about the “%WT GAIN ON DAY 14” value ([6]; FEAU 200 MG/KG/DAY) of the same compound?
**A.** 1%

**Q.** What about the “%WT GAIN ON DAY 21” value ([6]; FEAU 200 MG/KG/DAY) of the same compound?
**A.** 9%

**Q.** What about the “%WT GAIN ON DAY 30” value ([6]; FEAU 200 MG/KG/DAY) of the same compound?
**A.** 13%

**Q.** What about the toxicity ([6]; HSV-2 infected mice, doses of 100-200 mg/kg/day) of the same compound?
**A.** no toxicity was observed

**Q.** What about the “INCORPORATION INTO DNA AT 10μM, L-1210” value [7] of the same compound?
**A.** NOT DETECTABLE*

Reference: EP0338042B1, “COMPOSITION AND METHOD FOR TREATING HEPATITIS VIRUS INFECTIONS USING 1-(2'-DEOXY-2'-FLUORO-BETA-D-ARABINOFURANOSYL)-5-ETHYLURACIL” (priority 1987, dated 1989)
